The structures appear in SMILES notation. Where a name gives a salt, the structure may show the parent alone.

This experiment has as its system Tyr::CreER; B-RafV600E/+; Ptenlox/+ and Tyr::CreER; B-RafV600E/+; Ptenlox/lox mice. The experiment can be described thus: Genetically-initiated model of melanoma progression. In kind it is in vivo, mouse. Here is the method: The Tyr::CreER; B-Raf^V600E/+; Pten^lox/+/Tyr::CreER; B—Raf^V600E/+; Pten^lox/lox conditional model of melanoma progression was previously established and characterized by Dankort et al. (2009). Briefly, melanoma in these mice was induced at 6 weeks of age by intraperitoneally injecting 4-HT (H6278, 70% isomer, Sigma-Aldrich, St Louis, Mo.) at 25 mg/kg administered in peanut oil on three consecutive days. The 4-HT stock solution was prepared by dissolving it in 100% EtOH at 50 mg/mL by heating at 45° C. for 5 min and mixing. Once dissolved, the stock 4-HT solution was then diluted by 10-fold in peanut oil, yielding a 5 mg/mL 4-HT working solution that was then injected into mice. After the first 4-HT injection, mice were blindedly assigned to receive either a control diet or a diet supplemented with GW3965 (100 mg/kg). Mice were examined three times a week for the presence and progression of melanoma lesions. At day 35, dorsal skin samples were harvested from control-treated and GW3965-treated mice, fixed in 4% PFA and photographed at 10×. The percentage of pigmented melanoma lesion area out of the total skin area was quantified using ImageJ. For survival analyses, mice were monitored daily for melanoma progression and euthanized according to a standard body condition score, taking into account initial signs of moribund state and discomfort associated with the progression of melanoma burden. Post-mortem, the lungs, brains, and salivary glands were harvested and examined for the presence of macroscopic melanoma lesions.

For the compound `O=C(O)Cc1cccc(OCCCN(Cc2cccc(C(F)(F)F)c2Cl)CC(c2ccccc2)c2ccccc2)c1` [GW3965 2, 3-[3-[N-(2-Chloro-3-trifluoromethylbenzyl)-(2,2-diphenylethyl)amino]propyloxy] phenylacetic acid hydrochloride], the “number of lymphatic metastases detected post-mortem” value (Ptenlox/lox mice, GW3965 100 mg/kg) was “decrease”. Further, the tumor progression entry (oral, GW3965 diet 100 mg/kg after melanoma initiation) is “attenuated”. Further, under “oral, GW3965 diet 100 mg/kg, Ptenlox/+ and Ptenlox/lox”, the overall survival times result is listed as “significantly extended”.

(Values after patent publication US10945978B2, “Treatment and diagnosis of melanoma” (The Rockefeller University, priority 2012, dated 2021).)
